The values that follow come from ChEMBL document CHEMBL4840306, “Chemodynamic therapy agents Cu(II) complexes of quinoline derivatives induced ER stress and mitochondria-mediated apoptosis in SK-OV-3 cells” (Eur J Med Chem, 2021).

The subject of one assay is T-24. Kind of assay: Cytotoxicity against human T-24 cells assessed as reduction in cell viability measured after 48 hrs by MTT assay. The format is functional, cell-based. The note with it: T-24, 48 h. (In general: Tetrazolium dyes change colour on reduction, which living cells bring about.)
For a further assay, the system named is L02. Kind of assay: Cytotoxicity against human HL7702 cells assessed as reduction in cell viability measured after 48 hrs by MTT assay. The format is cell-based. The note with it: L02, 48 h.
Another assay deals with WI-38. Kind of assay: Cytotoxicity against human WI-38 cells assessed as reduction in cell viability measured after 48 hrs by MTT assay. The format is cell-based. The conditions noted are these: WI-38, 48 h.
A further assay relates to HepG2. Kind of assay: Cytotoxicity against human HepG2 cells assessed as reduction in cell viability measured after 48 hrs by MTT assay. The format is functional, cell-based. The note with it: HepG2, 48 h.
A further assay relates to MGC-803. Kind of assay: Cytotoxicity against human MGC-803 cells assessed as reduction in cell viability measured after 48 hrs by MTT assay. The format is functional, cell-based. The conditions noted are these: MGC-803, 48 h.
The subject of another assay is SK-OV-3. Kind of assay: Cytotoxicity against human SK-OV-3 cells assessed as reduction in cell viability measured after 48 hrs by MTT assay. The format is functional, cell-based. The conditions noted are these: SK-OV-3, 48 h.

Each structure is given as a SMILES string. Where only a bound is given, the exact number is not on record here.

In general, IC50 refers to the concentration needed to halve the response being measured.

As to `Oc1cccc(/C=N/c2cc3ccccc3nc2-c2ccccc2F)c1O`, the 50% inhibitory concentration (IC50) is over 40 µM in the assay with T-24; 34 µM in the assay on L02; over 40 µM in the assay on WI-38; over 40 µM in the assay with HepG2; over 40 µM in the assay with MGC-803; 23.6 µM with SK-OV-3.
